Measurements as given in patent US20080048155A1, “Filter and Cyanine Compound” (priority 2004, published 2008).

Tests used:
Assay type in all cases: physicochemical
[1] = Wet heat resistance stability test of filter (85° C., 85% RH, 3 days); conditions: for Residual Ratio: absorbance after/before ×100, 85° C. and 85% RH, 3 days; for Absorbance (OD value) After 3 days / Absorbance (OD value) Initial: acryl resin filter; for Absorbance (OD value) After 3 days: 85° C. and 85% RH for 3 days; for Absorbance (OD value) Initial: before 85° C./85% RH test
Procedure: (§1) In this connection, absorbance (OD value) was measured using a spectrophotometer UV-3150 made by Shimadzu Corp. When measurement was carried out using a solvent, the same solvent was measured as a blank, and when measurement was carried out using a filter, a filter which had the same composition except that only the cyanine compound was not contained was produced and measured as a blank.
The filter obtained in Example 12 (the filter using Compound 31) was left to stand in a high temperature constant humidity chamber at 85° C. and 85% RH for 3 days. Absorbance (OD value) of the filter was measured with a spectrophotometer before and after the test, and residual ratio of the coloring matter was determined from the change of the absorbance (OD value) at the maximum absorption wavelength.
The filters obtained in Comparative Examples 1 to 6 were left to stand in a high temperature constant humidity chamber at 85° C. and 85% RH for 3 days. Then absorbances (OD values) of the filters were measured with a spectrophotometer before and after the test, and residual ratios of the coloring matters were determined from the changes of the absorbances (OD values) at each maximum absorption wavelength. The test using the filter obtained in Comparative Example 1 is termed as Comparative Example 7, the test using the filter obtained in Comparative Example 2 is termed as Comparative Example 8, the test using the filter obtained in Comparative Example 3 is termed as Comparative Example 9, the test using the filter obtained in Comparative Example 4 is termed as Comparative Example 10, the test using the filter obtained in Comparative Example 5 is termed as Comparative Example 11, and the test using the filter obtained in Comparative Example 6 is termed as Comparative Example 12.

[2] = Heat resistance stability test of filter (oven 80° C., 7 days); conditions: for Residual Ratio: (Absorbance after the test/Absorbance before the test)×100, 80° C., 7 days; for Absorbance (OD value) Initial: acryl resin filter on polyester film, at maximum absorption wavelength, before 80° C. test; for Absorbance (OD value) After 7 days: acryl resin filter, oven at 80° C. for 7 days
Procedure: as §1
In 18.8 parts of MEK, 0.4 parts of Compound 31 obtained in the above Example 5 was dissolved. To this solution, 80 parts of a resin solution prepared by dissolving 25 parts of an acryl-based resin (DIANAL (RTM) BR-80, made by Mitsubishi Rayon Co., Ltd.) in 75 parts of MEK was mixed to obtain a solution for coating. This solution was coated on a polyester film so that thickness becomes 2 to 4 μm, dried at 80° C. to obtain an optical filter of the present invention. This filter was used as a filter for absorbing near infrared rays.
The resultant filter for absorbing near infrared rays was left to stand in an oven at 80° C. for 7 days. Then absorbance (OD value) of the filter was measured with a spectrophotometer before and after the test, and residual ratio of the coloring matter was determined from the change of the absorbance (OD value) at the maximum absorption wavelength. Residual ratio=(Absorbance after the test/Absorbance before the test)×100

[3] = Decomposition temperature by thermogravimetric-differential thermal analysis (TG-DTA); conditions: temperature at which weight loss initiated
Procedure: Into 25 parts of acetic acid, 14.9 parts of 4,5-benzo-1-(2-methoxyethyl)-3,3-dimethyl-2-methyleneindoline and 4.5 parts of 2-chloro-1-formyl-3-hydroxymethylenecyclohexene were charged and the reaction mixture was heated up to 60° C. 5.1 parts of acetic anhydride was added dropwise thereto at 50° C. to 60° C. over 1 hour, and then stirred at 50° C. to 60° C. for further 2 hours to complete the condensation reaction. The reaction liquid was cooled to room temperature, and then filtered under aspiration to remove insoluble impurity. Subsequently, a solution of 8.8 parts of potassium(bis-trifluoromethanesulfonyl)imide in 40 parts of water was added dropwise to the reaction liquid. The precipitated crystal was filtered under aspiration, recrystallized from 70 parts of N,N-dimethylformamide, washed with 5 parts of methanol, then with water, and dried, to obtain 19.1 parts of the aforementioned Compound 31. Spectroscopic characteristics and decomposition temperature of the resultant Compound 31 were as follows. In this connection, decomposition temperature was shown by a value of the temperature at which weight loss initiated in a thermogravimetric-differential thermal analysis (TG-DTA).

[4] = Solubility to various solvents at room temperature; conditions: % by mass
From the text: Further, solubility to various types of solvents at room temperature was as follows.
Further, solubility to various kinds of solvents at room temperature was as follows.

Structure (SMILES)	Residual Ratio [1] [%]	Absorbance (OD value) After 3 days [1]	Absorbance (OD value) Initial [1]	Residual Ratio [2] [%]	Absorbance (OD value) Initial [2]	Absorbance (OD value) After 7 days [2]	Decomposition temperature [3] [°C]	Solubility, Cyclopentanone [4] [%]	Solubility, Dichloromethane [4] [%]	Solubility, Methyl ethyl ketone (MEK) [4] [%]	Solubility, N,N-dimethylformamide [4] [%]	Solubility, Cyclohexanone [4] [%]
COCCN1/C(=C/C=C/C=C/C=C/C2=[N+](CCOC)c3ccccc3C2(C)C)C(C)(C)c2ccccc21 [Compound 30]	97.3	0.80	0.83	89.7	0.83	0.74						
COCCN1/C(=C/C=C2\CCCC(/C=C/C3=[N+](CCOC)c4ccc5ccccc5c4C3(C)C)=C2Cl)C(C)(C)c2c1ccc1ccccc21 [Compound 31]	90.9	0.59	0.65	80.9	0.65	0.52	242.9	14.5	19.2	2.9	24.6	
COCCN1/C(=C/C=C2\CCC(/C=C/C3=[N+](CCOC)c4ccc5ccccc5c4C3(C)C)=C2Cl)C(C)(C)c2c1ccc1ccccc21 [Compound 46]							213.0	3.1		0.2	3.4	0.8
CCCCOCCN1/C(=C/C=C2\CCC(/C=C/C3=[N+](CCOCCCC)c4ccc5ccccc5c4C3(C)C)=C2Cl)C(C)(C)c2c1ccc1ccccc21 [Compound 47]							186.0	0.9		1.6	4.5	2.6
COCCN1/C(=C/C=C2\CCCC(/C=C/C3=[N+](CCOC)c4ccccc4C3(C)C)=C2Cl)C(C)(C)c2ccccc21 [Compound A]	99.9	0.82	0.83	87.2	0.83	0.72	224.6					
CN1/C(=C/C=C2\CCCC(/C=C/C3=[N+](C)c4ccc5ccccc5c4C3(C)C)=C2Cl)C(C)(C)c2c1ccc1ccccc21 [Compound B]	93.6	0.63	0.67	85.6	0.67	0.57						
CN1/C(=C/C=C/C=C/C=C/C2=[N+](C)c3ccc4ccccc4c3C2(C)C)C(C)(C)c2c1ccc1ccccc21 [Compound C]	89.7	0.67	0.75	80.9	0.75	0.61						
